# US9388140B2, “Substituted benzimidazoles” (priority 2011, dated 2016)
# Target: human kinase Mps-1 (Homo sapiens (Human), UniProt P33981)
# Assay: Mps-1 kinase assay (TR-FRET)
# Format: biochemical
# Conditions: N-terminally GST-tagged human full length recombinant Mps-1; 10 μM ATP; 1 μM biotinylated peptide substrate; read-out: Mps1 IC50
# Protocol: The human kinase Mps-1 phosphorylates a biotinylated substrate peptide. Detection of the phosphorylated product is achieved by time-resolved fluorescence resonance energy transfer (TR-FRET) from Europium-labelled anti-phospho-Serine/Threonine antibody as donor to streptavidin labelled with cross-linked allophycocyanin (SA-XLent) as acceptor. Compounds are tested for their inhibition of the kinase activity.
# N-terminally GST-tagged human full length recombinant Mps-1 kinase (purchased from Invitrogen, Karslruhe, Germany, cat. no PV4071) was used. As substrate for the kinase reaction a biotinylated peptide of the amino-acid sequence […] (C-terminus in amide form, purchased from Biosynthan GmbH, Berlin) was used.
# The concentration of Mps-1 in the assay was adjusted to the activity of the enzyme lot and was chosen appropriate to have the assay in the linear range, typical enzyme concentrations were in the range of about 1 nM (final conc. in the 5 μl assay volume).
# The resulting mixture was incubated 1 h at 22° C. to allow the binding of the phosphorylated peptide to the anti-phospho(Ser/Thr)-Europium-antibody. Subsequently the amount of phosphorylated substrate was evaluated by measurement of the resonance energy transfer from the Europium-labelled anti-phospho(Ser/Thr) antibody to the Streptavidin-XLent.
# Sequence of human kinase Mps-1 (P33981 whole entry): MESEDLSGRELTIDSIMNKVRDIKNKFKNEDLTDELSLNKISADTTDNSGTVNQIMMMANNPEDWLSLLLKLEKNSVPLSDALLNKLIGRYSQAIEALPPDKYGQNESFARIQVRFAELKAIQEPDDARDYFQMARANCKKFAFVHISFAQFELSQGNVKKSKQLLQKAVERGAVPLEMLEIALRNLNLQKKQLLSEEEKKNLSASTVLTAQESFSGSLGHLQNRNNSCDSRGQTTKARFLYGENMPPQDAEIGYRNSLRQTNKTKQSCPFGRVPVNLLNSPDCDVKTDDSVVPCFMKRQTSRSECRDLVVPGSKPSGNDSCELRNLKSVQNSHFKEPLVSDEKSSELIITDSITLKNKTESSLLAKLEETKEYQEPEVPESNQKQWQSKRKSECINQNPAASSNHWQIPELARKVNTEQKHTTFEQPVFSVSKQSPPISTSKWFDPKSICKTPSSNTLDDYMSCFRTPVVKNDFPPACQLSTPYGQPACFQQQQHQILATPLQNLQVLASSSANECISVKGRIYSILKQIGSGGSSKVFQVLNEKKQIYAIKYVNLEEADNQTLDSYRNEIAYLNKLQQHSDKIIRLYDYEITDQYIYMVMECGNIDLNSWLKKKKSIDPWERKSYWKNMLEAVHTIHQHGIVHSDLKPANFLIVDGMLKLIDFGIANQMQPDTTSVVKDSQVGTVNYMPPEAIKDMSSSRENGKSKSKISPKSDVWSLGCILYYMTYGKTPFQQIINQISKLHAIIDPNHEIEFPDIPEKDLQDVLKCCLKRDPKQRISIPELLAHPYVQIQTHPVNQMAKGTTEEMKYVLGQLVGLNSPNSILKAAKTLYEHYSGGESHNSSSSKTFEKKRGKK
row,SMILES,IC50
1,"CCNC(=O)c1ccc(-n2cnc3c(NCCC(F)(F)F)cc(Oc4ccccc4O)cc32)cc1C [Example 55, N-ethyl-4-{6-(2-hydroxyphenoxy)-4-[(3,3,3-trifluoropropyl)amino]-1H-benzimidazol-1-yl}-2-methylbenzamide]",0.7 nM
2,"CNC(=O)c1ccc(-n2cnc3c(NCCC(F)(F)F)cc(Oc4ccccc4O)cc32)cc1C [Example 56, 4-{6-(2-hydroxyphenoxy)-4-[(3,3,3-trifluoropropyl)amino]-1H-benzimidazol-1-yl}-N,2-dimethylbenzamide]",0.3 nM
3,"COc1c(F)cccc1Oc1cc(NCCC(F)(F)F)c2ncn(-c3ccc(C(=O)NC4CC4)c(C)c3)c2c1 [Example 57, N-cyclopropyl-4-{6-(3-fluoro-2-methoxyphenoxy)-4-[(3,3,3-trifluoropropyl)amino]-1H-benzimidazol-1-yl}-2-methylbenzamide]",6.8 nM
4,"Cc1cc(-n2cnc3c(NCCC(F)(F)F)cc(Oc4cccc(OC(F)F)c4)cc32)ccc1C(=O)NC1CC1 [Example 62, N-cyclopropyl-4-{6-[3-(difluoromethoxy)phenoxy]-4-[(3,3,3-trifluoropropyl)amino]-1H-benzimidazol-1-yl}-2-methylbenzamide]",3.2 nM
5,"COc1ccccc1Nc1cc(NCCC(F)(F)F)c2ncn(-c3ccc(C(=O)NC4CC4)c(C)c3)c2c1 [Example 63, N-cyclopropyl-4-{6-[(2-methoxyphenyl)amino]-4-[(3,3,3-trifluoropropyl)amino]-1H-benzimidazol-1-yl}-2-methylbenzamide]",18.9 nM
6,"CCNC(=O)c1ccc(-n2cnc3c(NCCC(F)(F)F)cc(Oc4cccc(F)c4F)cc32)cc1C [Example 66, 4-{6-(2,3-difluorophenoxy)-4-[(3,3,3-trifluoropropyl)amino]-1H-benzimidazol-1-yl}-N-ethyl-2-methylbenzamide]",2.1 nM
7,"CNC(=O)c1ccc(-n2cnc3c(NCCC(F)(F)F)cc(Oc4cccc(F)c4F)cc32)cc1C [Example 67, 4-{6-(2,3-difluorophenoxy)-4-[(3,3,3-trifluoropropyl)amino]-1H-benzimidazol-1-yl}-N,2-dimethylbenzamide]",1 nM
8,"CNC(=O)c1ccc(-n2cnc3c(NCCC(F)(F)F)cc(Oc4cccc(OC)c4)cc32)cc1C [Example 68, 4-{6-(3-methoxyphenoxy)-4-[(3,3,3-trifluoropropyl)amino]-1H-benzimidazol-1-yl}-N, 2-dimethylbenzamide]",8.8 nM
9,"CCNC(=O)c1ccc(-n2cnc3c(NCCC(F)(F)F)cc(Oc4cccc(OC)c4)cc32)cc1C [Example 69, N-ethyl-4-{6-(3-methoxyphenoxy)-4-[(3,3,3-trifluoropropyl)amino]-1H-benzimidazol-1-yl}-2-methylbenzamide]",25.9 nM
10,"COc1cccc(Oc2cc(NCCC(F)(F)F)c3ncn(-c4ccc(C(=O)NC5CC5)c(C)c4)c3c2)c1 [Example 70, N-cyclopropyl-4-{6-(3-methoxyphenoxy)-4-[(3,3,3-trifluoropropyl)amino]-1H-benzimidazol-1-yl}-2-methylbenzamide]",2 nM
11,"CCNC(=O)c1ccc(-n2cnc3c(NCCC(F)(F)F)cc(Oc4cccc(F)c4OC)cc32)cc1C [Example 71, N-ethyl-4-{6-(3-fluoro-2-methoxyphenoxy)-4-[(3,3,3-trifluoropropyl)amino]-1H-benzimidazol-1-yl}-2-methylbenzamide]",28.5 nM
12,"CNC(=O)c1ccc(-n2cnc3c(NCCC(F)(F)F)cc(Oc4cccc(F)c4OC)cc32)cc1C [Example 72, 4-{6-(3-fluoro-2-methoxyphenoxy)-4-[(3,3,3-trifluoropropyl)amino]-1H-benzimidazol-1-yl}-N,2-dimethylbenzamide]",33 nM
13,"COc1cc(C#N)ccc1Oc1cc(NCCC(F)(F)F)c2ncn(-c3ccc(C(=O)NC4CC4)c(C)c3)c2c1 [Example 73, 4-{6-(4-cyano-2-methoxyphenoxy)-4-[(3,3,3-trifluoropropyl)amino]-1H-benzimidazol-1-yl}-N-cyclopropyl-2-methylbenzamide]",52.2 nM
14,"Cc1cc(-n2cnc3c(NCCC(F)(F)F)cc(Oc4ccc(S(C)(=O)=O)cc4)cc32)ccc1C(=O)NC1CC1 [Example 74, N-cyclopropyl-2-methyl-4-{6-[4-(methylsulfonyl)phenoxy]-4-[(3,3,3-trifluoropropyl)amino]-1H-benzimidazol-1-yl}benzamide]",6.4 nM
15,"Cc1cc(-n2cnc3c(NCCC(F)(F)F)cc(Nc4ccccc4O)cc32)ccc1C(=O)NC1CC1 [Example 82, N-cyclopropyl-4-{6-[(2-hydroxyphenyl)amino]-4-[(3,3,3-trifluoropropyl)amino]-1H-benzimidazol-1-yl}-2-methylbenzamide]",3.9 nM
16,"Cc1cc(-n2cnc3c(NCCC(F)(F)F)cc(Oc4ccc(O)c(F)c4)cc32)ccc1C(=O)NC1CC1 [Example 83, N-cyclopropyl-4-{6-(3-fluoro-4-hydroxyphenoxy)-4-[(3,3,3-trifluoropropyl)amino]-1H-benzimidazol-1-yl}-2-methylbenzamide]",0.7 nM
17,"CNC(=O)c1ccc(-n2cnc3c(NCC4CCOCC4)cc(Oc4cccc(F)c4F)cc32)cc1C [Example 84, 4-{6-(2,3-difluorophenoxy)-4-[(tetrahydro-2H-pyran-4-ylmethyl)amino]-1H-benzimidazol-1-yl}-N,2-dimethylbenzamide]",3.4 nM
18,"CCNC(=O)c1ccc(-n2cnc3c(NCC4CCOCC4)cc(Oc4cccc(F)c4F)cc32)cc1C [Example 85, 4-{6-(2,3-Difluorophenoxy)-4-[(tetrahydro-2H-pyran-4-ylmethyl)amino]-1H-benzimidazol-1-yl}-N-ethyl-2-methylbenzamide]",3.3 nM
19,"CNC(=O)c1ccc(-n2cnc3c(NCC4CCOCC4)cc(Oc4ccc(OC)cc4F)cc32)cc1C [Example 86, 4-{6-(2-fluoro-4-methoxyphenoxy)-4-[(tetrahydro-2H-pyran-4-ylmethyl)amino]-1H-benzimidazol-1-yl}-N,2-dimethylbenzamide]",7 nM

# Next, values leading:
row,IC50,SMILES
1,11.9 nM,"Cc1cc(-n2cnc3c(NCCC(F)(F)F)cc(Oc4cccc(OC(F)(F)F)c4)cc32)ccc1C(=O)NC1CC1 [Example 59, N-cyclopropyl-2-methyl-4-{6-[3-(trifluoromethoxy)phenoxy]-4-[(3,3,3-trifluoropropyl)amino]-1H-benzimidazol-1-yl}benzamide]"
2,11.5 nM,"Cc1cc(-n2cnc3c(NCCC(F)(F)F)cc(Oc4ccc(N5CCOCC5)cc4)cc32)ccc1C(=O)NC1CC1 [Example 60, N-cyclopropyl-2-methyl-4-{6-[4-(morpholin-4-yl)phenoxy]-4-[(3,3,3-trifluoropropyl)amino]-1H-benzimidazol-1-yl}benzamide]"
3,1.3 nM,"Cc1cc(-n2cnc3c(NCCC(F)(F)F)cc(Oc4ccc(OC(F)F)cc4)cc32)ccc1C(=O)NC1CC1 [Example 61, N-cyclopropyl-4-{6-[4-(difluoromethoxy)phenoxy]-4-[(3,3,3-trifluoropropyl)amino]-1H-benzimidazol-1-yl}-2-methylbenzamide]"
4,2.6 nM,"Cc1cc(-n2cnc3c(NCCC(F)(F)F)cc(Oc4cccc(S(C)(=O)=O)c4)cc32)ccc1C(=O)NC1CC1 [Example 64, N-cyclopropyl-2-methyl-4-{6-[3-(methylsulfonyl)phenoxy]-4-[(3,3,3-trifluoropropyl)amino]-1H-benzimidazol-1-yl}benzamide]"
5,2.8 nM,"COc1cccc(Nc2cc(NCCC(F)(F)F)c3ncn(-c4ccc(C(=O)NC5CC5)c(C)c4)c3c2)c1C [Example 65, N-cyclopropyl-4-{6-[(3-methoxy-2-methylphenyl)amino]-4-[(3,3,3-trifluoropropyl)amino]-1H-benzimidazol-1-yl}-2-methylbenzamide]"
6,21.9 nM,"Cc1cc(-n2cnc3c(NCCC(F)(F)F)cc(Oc4ccc(-c5ncco5)cc4)cc32)ccc1C(=O)NC1CC1 [Example 75, N-cyclopropyl-2-methyl-4-{6-[4-(1,3-oxazol-2-yl)phenoxy]-4-[(3,3,3-trifluoropropyl)amino]-1H-benzimidazol-1-yl}benzamide]"
7,7.2 nM,"Cc1cc(-n2cnc3c(NCCC(F)(F)F)cc(Oc4ccc(F)c(C(F)(F)F)c4)cc32)ccc1C(=O)NC1CC1 [Example 76, N-cyclopropyl-4-{6-[4-fluoro-3-(trifluoromethyl)phenoxy]-4-[(3,3,3-trifluoropropyl)amino]-1H-benzimidazol-1-yl}-2-methylbenzamide]"
8,1 nM,"Cc1cc(-n2cnc3c(NCCC(F)(F)F)cc(Oc4cccc(C#N)c4)cc32)ccc1C(=O)NC1CC1 [Example 77, 4-{6-(3-cyanophenoxy)-4-[(3,3,3-trifluoropropyl)amino]-1H-benzimidazol-1-yl}-N-cyclopropyl-2-methylbenzamide]"
9,11 nM,"Cc1cc(-n2cnc3c(NCCC(F)(F)F)cc(Oc4ccc(-n5cncn5)cc4)cc32)ccc1C(=O)NC1CC1 [Example 78, N-cyclopropyl-2-methyl-4-{6-[4-(1H-1,2,4-triazol-1-yl)phenoxy]-4-[(3,3,3-trifluoropropyl)amino]-1H-benzimidazol-1-yl}benzamide]"
10,3.9 nM,"Cc1cc(-n2cnc3c(NCCC(F)(F)F)cc(Oc4cccc(C(=O)NC5CC5)c4)cc32)ccc1C(=O)NC1CC1 [Example 79, N-cyclopropyl-4-{6-[3-(cyclopropylcarbamoyl)phenoxy]-4-[(3,3,3-trifluoropropyl)amino]-1H-benzimidazol-1-yl}-2-methylbenzamide]"
